Assay: solvent given as SMILES

C1COCCO1
Conditions | solvation free energy, 298 K [kcal/mol]
in Brc1ccccc1 | -5.08
in C1CCCCC1 | -4.15
in C1CCOC1 | -5.11
in CC1COC(=O)O1 | -4.98
in CC#N | -5.28
in CC(=O)N(C)C | -4.98
in CC(=O)O | -5.82
in CC(=O)c1ccccc1 | -5.03
in CC(C)(C)Cl | -4.78
in CC(C)(C)O | -4.79
in CC(C)=O | -5.07
in CC(C)CC(C)(C)C | -4.01
in CC(C)CCCC(C)CCCC(C)CCCCC(C)CCCC(C)CCCC(C)C | -3.8
in CC(C)CCO | -4.54
in CC(C)O | -4.55
in CC(C)OC(C)C | -4.39
in CCBr | -5.21
in CCC(C)=O | -5.01
in CCC(C)Cl | -4.7
in CCCC#N | -5.03
in CCCCC | -4.02
in CCCCCC | -4.06
in CCCCCCC | -4.01
in CCCCCCCCCC | -3.97
in CCCCCCCCCCCCCCCC | -3.81
in CCCCCl | -4.8
in CCCCN | -4.93
in CCCCN(C=O)CCCC | -4.58
in CCCCO | -4.56
in CCCCOCCCC | -4.31
in CCCO | -4.51
in CCN(CC)CC | -4.35
in CCO | -4.68
in CCOC(C)=O | -5.01
in CCOCC | -4.62
in CCOCCOCCOCC | -4.77
in CCOP(=O)(OCC)OCC | -4.63
in CCOc1ccccc1 | -4.85
in CN1CCCC1=O | -4.97
in CN1CCN(C)C1=O | -4.62
in CN(C)C=O | -5.06
in CN(C)P(=O)(N(C)C)N(C)C | -4.82
in CNC(C)=O | -4.67
in CNC=O | -4.87
in CO | -4.9
in COCCO | -4.92
in COc1ccccc1 | -5.06
in CS(C)=O | -4.84
in Cc1ccc(C)cc1 | -4.8
in Cc1cccc(C)n1 | -4.91
in Cc1cccc(O)c1 | -6.82
in Cc1ccccc1 | -4.91
in Cc1ccccn1 | -5.02
in ClC(Cl)(Cl)Cl | -4.95
in ClC(Cl)Cl | -6.11
in Clc1ccccc1 | -5.07
in FC(F)(F)C(F)(F)C(F)(F)C(F)(F)C(F)(F)C(F)(F)F | -2.75
in Fc1c(F)c(F)c(F)c(F)c1F | -4.93
in Fc1ccccc1 | -5.16
in ICI | -4.89
in Ic1ccccc1 | -4.94
in NC=O | -4.8
in Nc1ccccc1 | -5.65
in O | -5.06
in O=C1CCCCC1 | -4.98
in O=C1CCCO1 | -5.07
in O=CN1CCOCC1 | -4.73
in OCCO | -4.29
in OCCOCCOCCO | -3.88
in OCc1ccccc1 | -5.42
in S=C=S | -4.62
in [2H]O[2H] | -5.02
in c1ccc2ncccc2c1 | -4.87
in c1ccc(COCc2ccccc2)cc1 | -4.77
in c1ccccc1 | -5.16
in c1ccncc1 | -5.16

Cc1ccc(C(=O)O)cc1C
Conditions | solvation free energy, 298 K [kcal/mol]
in CN(C)C=O | -11.6
in O | -6.55

C=C1C=CC(C(C)C)CCC(C)=CCC1 (centres undefined)
Conditions | solvation free energy, 298 K [kcal/mol]
in O | 0.14

Brc1cc(Br)cc(Br)c1
Conditions | solvation free energy, 298 K [kcal/mol]
in CCCCCCCCC=CCCCCCCCC(=O)OCC(COC(=O)CCCCCCCC=CCCCCCCCC)OC(=O)CCCCCCCC=CCCCCCCCC | -8.73
in O | -1.91

C=CCCCC
Conditions | solvation free energy, 298 K [kcal/mol]
in C1CCC2CCCCC2C1 | -3.67
in C1CCC(C2CCCCC2)CC1 | -3.65
in C=CCCCCCCCCCCCCCC | -3.48
in CC#N | -2.96
in CC(C)CC(C)(C)C | -3.78
in CCC#N | -3.49
in CCCC#N | -3.2
in CCCCC(CC)COC(=O)CCCCC(=O)OCC(CC)CCCC | -3.36
in CCCCC(CC)COC(=O)c1ccccc1C(=O)OCC(CC)CCCC | -3.18
in CCCCCCC | -3.83
in CCCCCCCCC=CCCCCCCCC(=O)OCC(COC(=O)CCCCCCCC=CCCCCCCCC)OC(=O)CCCCCCCC=CCCCCCCCC | -3.41
in CCCCCCCCCCCCCCCC | -3.51
in CCCCCCCCO | -3.29
in CCCCCO | -3.3
in CCCCO | -3.22
in CCCCOC(=O)c1ccccc1C(=O)OCCCC | -3.37
in CCN1CCCC1=O | -3.11
in CCN(CC)C(C)=O | -3.26
in CCNC(C)=O | -3.04
in CCNC=O | -2.85
in CCOC(=O)c1ccccc1C(=O)OCC | -2.96
in CN1CCCC1=O | -2.91
in CN1CCCCC1=O | -3.06
in CN1CCN(C)C1=O | -2.83
in CN(C)C=O | -2.96
in CNC=O | -2.55
in COC(C)=O | -3.51
in CS(C)=O | -2.1
in Cc1cccc(C)c1 | -3.74
in N#CCCCCC#N | -2.31
in N#Cc1ccccc1 | -3.15
in NC=O | -0.91
in NCCO | -1.17
in Nc1ccccc1 | -2.68
in O | 1.58
in O=C1CCCO1 | -2.49
in O=CN1CCOCC1 | -2.37
in O=Cc1ccco1 | -2.62
in OCCO | -1.11
in OCCOCCO | -1.73
in OCCOCCOCCO | -1.83
in OCCOCCOCCOCCO | -1.94
in OCc1ccco1 | -2.53
in c1ccc2c(c1)CCCC2 | -3.69
in c1ccc(C2CCCCC2)cc1 | -3.63

O=C(O)c1ccc(Br)cc1
Conditions | solvation free energy, 298 K [kcal/mol]
in CN(C)C=O | -12.3
in O | -6.67

CC1=CCC(C(C)C)=CC1
Conditions | solvation free energy, 298 K [kcal/mol]
in O | -0.03

CC(=O)OCCC(C)C
Conditions | solvation free energy, 298 K [kcal/mol]
in CCCCCCCCCCCCCCCC | -4.96
in CCCCCCCCO | -5.34
in O | -2.29
in [2H]O[2H] | -2.36

CCCCN(CCC)N=O
Conditions | solvation free energy, 298 K [kcal/mol]
in CC(C)CC(C)(C)C | -7.18
in O | -5.12

c1ccc2c(c1)oc1ccccc12
Conditions | solvation free energy, 298 K [kcal/mol]
in CC(=O)N(C)C | -9.94
in CN1CCCC1=O | -10
in O | -3.31

O=CO
Conditions | solvation free energy, 298 K [kcal/mol]
in C=CCCCCCCC=C | -2.89
in C=CCCCCCCCCCCCCCC | -2.47

CCOCCOC(C)=O
Conditions | solvation free energy, 298 K [kcal/mol]
in O | -5.31

CCOC(C)(C)C
Conditions | solvation free energy, 298 K [kcal/mol]
in C1CCCCC1 | -4.12
in CC(=O)N(C)C | -3.53
in CCCCCC | -4.07
in CCCCCCC | -3.98
in CCCCCCCCO | -3.67
in CCCCN(C=O)CCCC | -3.6
in CCN1CCCC1=O | -3.42
in CCN(CC)C(C)=O | -3.66
in CCNC(C)=O | -3.49
in CCNC=O | -3.38
in CCOCC | -4.22
in CN1CCCCC1=O | -3.44
in CN(C)C=O | -3.31
in CNC(C)=O | -3.4
in CNC=O | -3.21
in CO | -4.07
in O | -1.61

CCC(=O)Nc1ccc(Cl)c(Cl)c1
Conditions | solvation free energy, 298 K [kcal/mol]
in O | -7.78

Nc1ccc(S(N)(=O)=O)cc1
Conditions | solvation free energy, 298 K [kcal/mol]
in O | -14.8

COC(CC#N)(OC)OC
Conditions | solvation free energy, 298 K [kcal/mol]
in O | -6.4

CCC1CO1 (centres undefined)
Conditions | solvation free energy, 298 K [kcal/mol]
in CC(C)O | -3.72
in COC(=O)OC | -4.11
in COC(C)=O | -4.16
in ClC(Cl)Cl | -4.9
in O | -2.93

N#CCCOCCC#N
Conditions | solvation free energy, 298 K [kcal/mol]
in CCCCCCC | -7.82

CCC(O)C(C)(C)C (centres undefined)
Conditions | solvation free energy, 298 K [kcal/mol]
in CCCCCCCC | -4.93
in CCCCCCCCCC | -4.85

CCNc1nc(Cl)nc(NC(C)(C)C)n1
Conditions | solvation free energy, 298 K [kcal/mol]
in O | -8.66

c1ccc2c(c1)OCCOCCOCCOc1ccccc1OCCOCCOCCO2
Conditions | solvation free energy, 298 K [kcal/mol]
in Cc1cccc(C)c1 | -27.3
in O | -23.6

CC1CCCCC1
Conditions | solvation free energy, 298 K [kcal/mol]
in C1CCOC1 | -4.67
in C1COCCO1 | -4.09
in CC1CCS(=O)(=O)C1 | -3
in CC#N | -3.28
in CC(=O)N(C)C | -3.68
in CC(C)=O | -3.93
in CC(C)CCCC(C)CCCC(C)CCCCC(C)CCCC(C)CCCC(C)C | -4.3
in CC(C)O | -3.79
in CCC#N | -4.07
in CCC(C)=O | -4.12
in CCCC#N | -3.63
in CCCCC(CC)COC(=O)c1ccccc1C(=O)OCC(CC)CCCC | -3.99
in CCCCCCC | -4.79
in CCCCCCCCC=CCCCCCCCC(=O)OCC(COC(=O)CCCCCCCC=CCCCCCCCC)OC(=O)CCCCCCCC=CCCCCCCCC | -4.26
in CCCCCCCCCC | -4.57
in CCCCCCCO | -4.16
in CCCCN(C=O)CCCC | -4.05
in CCCCOC(=O)c1ccccc1C(=O)OCCCC | -4.11
in CCOC(=O)c1ccccc1C(=O)OCC | -3.59
in CN1CCCC1=O | -3.59
in CN1CCCCC1=O | -3.72
in CN(C)C=O | -3.52
in CNC(C)=O | -3.59
in CNC=O | -3.18
in COC(C)(C)C | -4.8
in COCCO | -3.47
in CS(C)=O | -2.73
in NC=O | -1.42
in Nc1ccccc1 | -3.29
in O | 1.7
in O=C1CCCO1 | -3
in O=CN1CCOCC1 | -2.94
in OCCCCCO | -2.87
in OCCCCO | -2.77
in OCCCO | -2.39
in OCCO | -1.58
in OCCOCCO | -2.38
in OCCOCCOCCO | -2.44
in OCCOCCOCCOCCO | -2.55
in OCCS | -2.82

CC(C)CCC(C)O (centres undefined)
Conditions | solvation free energy, 298 K [kcal/mol]
in CCCCCCCC | -5.33
in CCCCCCCCCC | -5.22

From the CombiSolv-Exp solvation set (Vermeire and Green 2021)
